Measurements: patent US7541463B2, “Sulfur-containing naphthalimide derivatives” (East China University of Science and Technology, priority 2003, dated 2009)

melting point | Compound
174 to 175 °C | C=C(C)C(CN1C(=O)c2cccc3c2c(cc2c4ccccc4sc32)C1=O)OO (centres unmarked) [compound 19]
95 to 97 °C | C=C(C)C(O)CN1C(=O)c2cccc3c2c(cc2c4ccccc4sc32)C1=O (centres unmarked) [compound 20]
207 to 208 °C | CC(C)=CCN1C(=O)c2cccc3c2c(cc2c4ccccc4sc32)C1=O [compound 21]
210 to 211 °C | C=C(C)C(CCn1c(=O)c2ccc3sc4ccccc4c4ccc(c1=O)c2c34)OO (centres unmarked) [compound 22]
202 to 203 °C | CC(C)=CCCn1c(=O)c2ccc3sc4ccccc4c4ccc(c1=O)c2c34 [compound 23]
189 to 190 °C | O=C(ON1C(=O)c2cccc3cccc(c23)C1=S)c1ccccc1 [compound 24]
182 to 183 °C | O=C(ON1C(=O)c2cccc3cccc(c23)C1=S)c1ccc(Cl)cc1 [compound 26]
208 to 210 °C | O=C(ON1C(=O)c2cccc3cccc(c23)C1=S)c1ccc(Cl)cc1F [compound 30]
216 to 218 °C | Cc1cc(C)cc(C(=O)ON2C(=O)c3cccc4cccc(c34)C2=S)c1 [compound 31]
221 to 223 °C | COc1ccc(C(=O)ON2C(=O)c3cccc4cccc(c34)C2=S)cc1OC [compound 32]
209 to 211 °C | O=C(ON1C(=O)c2cccc3cccc(c23)C1=S)c1ccco1 [compound 34]
